Laboratory results published in ChEMBL document CHEMBL5338731, “Development of Neuropeptide Hemokinin-1 Analogues with Antimicrobial and Wound-Healing Activity” (J Med Chem, 2023).

Assay: Hemolytic activity in mouse erythrocytes assessed as haemoglobin release at 10 uM incubated for 1 hrs by microplate reader method
Assay type: toxicity, cell-based, Erythrocyte
Conditions: read-out: Activity

CC[C@H](C)[C@H](NC(=O)CN)C(=O)NCC(=O)N[C@@H](C)C(=O)N[C@H](C(=O)N[C@@H](CC(C)C)C(=O)N[C@@H](CCCCN)C(=O)N[C@H](C(=O)N[C@@H](CC(C)C)C(=O)N[C@H](C(=O)N[C@H](C(=O)NCC(=O)N[C@@H](CC(C)C)C(=O)N1CCC[C@H]1C(=O)N[C@@H](C)C(=O)N[C@@H](CC(C)C)C(=O)N[C@H](C(=O)N[C@@H](CO)C(=O)N[C@@H](Cc1c[nH]c2ccccc12)C(=O)N[C@H](C(=O)N[C@@H](CCCCN)C(=O)N[C@@H](CCCNC(=N)N)C(=O)N[C@@H](CCCCN)C(=O)N[C@@H](CCCNC(=N)N)C(=O)N[C@@H](CCC(N)=O)C(=O)N[C@@H](CCC(N)=O)C(N)=O)[C@@H](C)CC)[C@@H](C)CC)[C@@H](C)O)[C@@H](C)O)C(C)C)C(C)C [MELITTIN]
hemolysis at 1 h, 10 µM: 58.8%
